Source: PMC8148468, “Shikimic acid protects skin cells from UV-induced senescence through activation of the NAD+-dependent deacetylase SIRT1” (Aging (Albany NY), 2021)
Read-outs that look alike come from different tables or passages of the source.

What was measured:
[1] = tested on: H3K9ac (the target of SIRT1, SIRT2 and SIRT6); test: Sirtuin activity assay in HDF: H3K9ac levels (Western blot); type: cell-based, human; settings: HDF treated 24h; for SIRT1,2,6 H3K9ac: Figure 1B; as to SIRT1,2,6 H3K9ac: key: ↑: increase; ↓: decrease; hyphens that indicate no effect (-)
Method: (§1) Figure 1 (A) Schematic representation of the compound testing for sirtuin activity evaluation in HDF. Cells were treated with or without the compounds for 24h and harvested for analysis. […] (C) Western Blot analysis and (D) quantification of H4K16ac and H3K9ac levels in cells treated with Resveratrol or Shikimic acid at the indicated concentrations. H4K16 and H3K9 levels were normalized to H4 and H3 levels respectively. Student T-test, *p<0.05, **p<0.01, ***p<0.001.
(§2) HDFs were plated in 100x20 mm2 cell culture plates and after 24h, fresh cell culture medium containing the compounds was added. After 24h, cells were detached with cell scrapers, harvested, and processed for qPCR or western blot.
(§3) Protein levels were analyzed as previously described. Cells were directly lysed in 1x Laemmli Buffer (Bio-Rad, USA), incubated at 95° C and centrifuged. Supernatant was subjected to SDS-polyacrylamide gel electrophoresis, and successive steps were performed as described. The list of antibodies used is included in Supplementary Table 2.

[2] = tested on: UVB-irradiated human dermal fibroblasts (HDFs); test: UVB-induced senescence assay: SA-β-Gal staining; type: cell-based; settings: for β-Gal: HDF, 2 cycles of UVB, compound day 1 to 7, Figure 2B; for SA-β-Gal accumulation/staining / prevention of UV-induced cellular senescence / effect of sirtuin inhibitor on the protective effect of SA on senescence (SA-β-Gal and HAS2 expression): UVB-irradiated HDF; for prevention of UV-induced cellular senescence: SA-β-Gal and HAS2 markers; for effect of sirtuin inhibitor on the protective effect of SA on senescence (SA-β-Gal and HAS2 expression): SA 10, 25, 50 mM plus EX-527 1 μM, AGK2 2 μM or OSS128167 200 μM; as to β-Gal: key: ↑: increase; ↓: decrease; hyphens that indicate no effect (-)
Method: (§4) In the second approach, we established a method for inducing senescence in these cells with 2 cycles of UVB irradiation 72h apart (Figure 2A). The use of UVA to induce senescence was discarded due to its considerably longer time requirement, being unsuitable to screen 30 compounds within a reasonable period. Cells were treated with these compounds throughout the duration of the assay and cellular senescence was monitored with two markers: accumulation of SA-β-galactosidase (SA-β-Gal) activity, and the decrease in expression of HAS2 (hyaluronic acid synthase 2), a previously reported marker of skin senescence.
(§5) Figure 2 (A) Schematic representation of the protocol for senescence induction using UVB irradiation. Cells were treated -/+ the compounds from day 1 to 7 after seeding, irradiated with UVB on days 2 and 5 and harvested for analysis on day 7. […] (C) Phase-contrast (left column) and bright field (right column) microscope images of SA-β-Gal staining showing non-irradiated cells, UVB-irradiated cells non-treated and treated with Gallic acid or Shikimic acid at the indicated concentrations. (D) Percentage of SA-β-Gal positive cells and (E) Relative HAS2 mRNA levels in non-irradiated cells, UVB-irradiated cells and UVB-irradiated cells treated with Gallic acid or Shikimic acid at the indicated concentrations. Student T-test, *p<0.05, **p<0.01, ***p<0.001.
(§6) The protocol for senescence induction using UVB irradiation is described in the Supplementary Methods. SA-β-Gal staining, WST-1, sulforhodamine B (SRB) and trypan blue assays were performed as previously described. For the siRNA experiments, the protocol for senescence induction using UVB irradiation was the same as in the Supplementary Methods. Specific siRNA (Horizon discovery, UK) for SIRT1, SIRT2, SIRT6, BiP or scramble siRNA were incubated for 6 hours before each irradiation step.
(§7) Senescence induction by UVB irradiation For the non-irradiation control conditions, HDF were […]
(§8) After 24h, culture medium was removed and well plates. After 24h, culture medium was removed replaced by fresh cell culture medium containing the and replaced with fresh cell culture medium containing compounds at different concentrations. After 24h, the compounds at different concentrations. […]
(§9) cell culture medium was removed, and cells were cells/plate in fresh cell culture medium containing the irradiated at 25 mJ/cm2 of UVB light (312 nm) in a Bio- compound in 6-well plates. After 3 days, cells were […]
(§10) amount of PBS. PBS was then removed and fresh cell fresh cell culture medium containing the compound in culture medium with the compound was added to each 6-well plates. After 2 days, cells were processed well. After 3 days, cells were irradiated again under the according to the qPCR, β-Gal staining, apoptosis, cell same conditions. After 2 days, cells were processed cycle or immunofluorescence protocols. according to the qPCR, β-Gal staining, apoptosis, cell cycle or immunofluorescence protocols.

[3] = tested on: primary human dermal fibroblasts (HDFs)
From the text: In our efforts to identify novel factors that could prevent skin cell senescence, we developed a screening process to identify new modulators of the protective role of sirtuins in UV-induced senescence. For this purpose, we established a culture of primary human dermal fibroblasts (HDFs). […] Our first step in the screening was to establish the optimal concentrations of these compounds in the case of HDFs. […] Once established, we took these parameters into account to decide the specific working range of concentrations for each compound.
Human dermal fibroblasts (HDFs) (Promocell, Germany) from 40-year old Caucasian women were used as the in vitro model for compound viability and efficacy screening. Cells were cultured in Dulbecco's modified eagle medium (DMEM) low glucose (Biowest, France) supplemented with 10% fetal bovine serum (FBS) (Capricorn Scientific, Germany) and 10 U/mL penicillin/streptomycin (Biowest, France) in a humidified incubator at 37° C and 5% CO2. For cell passage, cells at 80% confluence were trypsinized and plated at 60% confluence. Cells between passage 13 and 18 were used for the assays. For the SIRT1 in vitro assay, HEK293 cells (ATCC, USA), used to transfect and immunoprecipitate SIRT1 protein, were grown in DMEM high glucose (Thermo Fisher Scientific, USA), supplemented with 10% FBS in a humidified incubator at 37° C and 5% CO2. The following experiments were all performed in triplicate.
as §6

[4] = tested on: H4K16ac (the target of SIRT1 and SIRT2); test: Sirtuin activity assay in HDF: H4K16ac levels (Western blot); type: cell-based, human; settings: HDF treated 24h; for SIRT1,2 H4K16ac: Figure 1B; as to SIRT1,2 H4K16ac: key: ↑: increase; ↓: decrease; hyphens that indicate no effect (-)
Method: as §1, §2, §3

[5] = tested on: HAS2 (hyaluronic acid synthase 2); test: UVB-induced senescence assay: HAS2 gene expression (qPCR); type: cell-based, human; settings: HDF, 2 cycles of UVB, compound day 1 to 7, Figure 2B; also: key: ↑: increase; ↓: decrease; hyphens that indicate no effect (-)
Method: as §4, §5
RNA was extracted from cell pellets using the Total RNA Purification Kit (Norgen, Canada), according to the manufacturer’s protocol. Extracted RNA was quantified using a NanoDrop® ND-1000 UV-Vis Spectrophotometer (Thermo Fisher Scientific, USA) and 300 ng of RNA were retrotranscribed to cDNA using the PrimeScriptTM RT reagent kit (Takara Bio Inc., Japan). cDNA was diluted 1/10 in ultrapure water and qPCR mix was prepared by adding cDNA (12 ng), SYBR green supermix (Bio Rad, USA), forward and reverse primers (0.2μM). The primers and their respective sequences are listed in Supplementary Table 1. qPCR protocol included one step at 95° C for 30 s, 40 cycles at 95° C for 10s, and 60° C for 1min. The results were analyzed with Bio-Rad CFX Manager software. BACT was used as a housekeeping gene to normalize gene expression.
as §7, §8, §9, §10

[6] = HDFs, WST-1 cell viability test
[7] = HDFs, WST-1 cell viability test, maximum non-cytotoxic dose

Compound	SIRT1,2,6 H3K9ac [1]	β-Gal [2]	SA-β-Gal accumulation/staining [2]	Max. non-cyt. doses [3] [mM]	SIRT1,2 H4K16ac [4]	effect on H3K9ac levels [1]	prevention of UV-induced cellular senescence [2]	LD50 [3, 6] [mM]	Max. non-cyt. doses [3, 7] [mM]	effect on H4K16ac levels [4]	effect of sirtuin inhibitor on the protective effect of SA on senescence (SA-β-Gal and HAS2 expression) [2]	HAS2 expression [5]	LD50 ([3]; female, human) [mM]	Max. non-cyt. doses ([3]; female, human) [mM]
O=C(O)CCCC[C@@H]1CCSS1 (racemic) [Lipoic acid]	-	-	did not change the level of SA-β-Gal staining	1	-									
O=Cc1ccc(O)c(O)c1 [3,4-dihydroxybenzaldehyde]						induced a similar effect on both targets	did not prevent cellular senescence	1.08	0.1	induced a similar effect on both targets				
N#C/C(=C\c1ccc(-c2cc(Cl)ccc2Cl)o1)C(=O)Nc1cccc2ncccc12 [AGK2, reference compound]											produced no clear effect			
NC(=O)NC1NC(=O)NC1=O (stereo not shown) [Allantoin, reference compound]		-			-							-	100	50
C=C1CC[C@@H]2[C@](C)(CO)[C@H](O)CC[C@@]2(C)[C@@H]1C/C=C1/C(=O)OC[C@H]1O [Andrographolide]		-				induced a similar effect on both targets	did not prevent cellular senescence	0.124	0.01	induced a similar effect on both targets		-		
C[N+](C)(C)CC(=O)O [Betaine]	-	-			-			507.81	50			-		
NCCC(=O)N[C@@H](Cc1cnc[nH]1)C(=O)O [Carnosine]	-	-	did not change the level of SA-β-Gal staining		-			85.46	25					
C/C=C/C(=O)C1=C(C)C=CCC1(C)C [Damascenone]	-	-		0.05	-			0.121				-		
CC(C)(CO)[C@@H](O)C(=O)NCCCO [Dexpanthenol, reference compound]		-				induced a similar effect on both targets	did not prevent cellular senescence			induced a similar effect on both targets		-	262.48	100
CC1=NCC[C@@H](C(=O)O)N1 [Ectoine]		-		300	-	reduced the levels of H3K9ac only		359.12				-		
COc1cc(/C=C/C(=O)O)ccc1O [Ferulic acid]	-	-	did not change the level of SA-β-Gal staining	7.5	-			16.5						
O=C(O)c1cc(O)c(O)c(O)c1 [Gallic acid]	-	-			-								0.179	0.1
C=C[C@@H]1C2=CCOC(=O)C2=CO[C@H]1O[C@@H]1O[C@H](CO)[C@@H](O)[C@H](O)[C@H]1O [Gentiopicrin]	-	-						13.825				-		2.5
COC1=C(OC)C(=O)C(CCCCCCCCCCO)=C(C)C1=O [Idebenone, reference compound]	-	-										-	0.021	0.01
COc1cc(-c2coc3cc4c(c(OC)c3c2=O)OCO4)cc(OC)c1OC [Irisflorentin]	-	-			-			0.049	0.01					
O=C(Nc1ccc(O)c(C(=O)O)c1)c1cccc(NC(=O)c2ccco2)c1 [OSS128167, reference compound]											produced no clear effect			
O=C(CCc1ccc(O)cc1)c1c(O)cc(O)cc1O [Phloretin]	-	-								had an effect solely on H4K16ac			0.166	0.05
C=C[C@](C)(O)CC[C@@H]1[C@@]2(C)CCCC(C)(C)[C@@H]2CC[C@@]1(C)O [Sclareol]	-	-						0.04	0.02			-		
NCCS(=O)(=O)O [Taurine]	-	-	did not change the level of SA-β-Gal staining		-								396.58	150
C[C@@H]1O[C@@H](O[C@@H]2[C@@H](O)[C@H](OCCc3ccc(O)c(O)c3)O[C@H](CO)[C@H]2OC(=O)/C=C/c2ccc(O)c(O)c2)[C@H](O)[C@H](O)[C@H]1O [Verbascoside]	-	-	did not change the level of SA-β-Gal staining		-			0.122	0.05					
